Assay results published in ChEMBL document CHEMBL2380210, “Discovery of natural estrogen receptor modulators with structure-based virtual screening” (Bioorg Med Chem Lett, 2013).
Activity calls are given as the source filed them. The rule behind the calls is not given here.

What was measured:
Estrogen receptor [1] = target: T1, Estrogen receptor (Homo sapiens, UniProt P03372); assay: Antagonist activity at human estrogen receptor-alpha by yeast two-hybrid assay in presence of SRC1
T1 sequence (P03372 whole entry): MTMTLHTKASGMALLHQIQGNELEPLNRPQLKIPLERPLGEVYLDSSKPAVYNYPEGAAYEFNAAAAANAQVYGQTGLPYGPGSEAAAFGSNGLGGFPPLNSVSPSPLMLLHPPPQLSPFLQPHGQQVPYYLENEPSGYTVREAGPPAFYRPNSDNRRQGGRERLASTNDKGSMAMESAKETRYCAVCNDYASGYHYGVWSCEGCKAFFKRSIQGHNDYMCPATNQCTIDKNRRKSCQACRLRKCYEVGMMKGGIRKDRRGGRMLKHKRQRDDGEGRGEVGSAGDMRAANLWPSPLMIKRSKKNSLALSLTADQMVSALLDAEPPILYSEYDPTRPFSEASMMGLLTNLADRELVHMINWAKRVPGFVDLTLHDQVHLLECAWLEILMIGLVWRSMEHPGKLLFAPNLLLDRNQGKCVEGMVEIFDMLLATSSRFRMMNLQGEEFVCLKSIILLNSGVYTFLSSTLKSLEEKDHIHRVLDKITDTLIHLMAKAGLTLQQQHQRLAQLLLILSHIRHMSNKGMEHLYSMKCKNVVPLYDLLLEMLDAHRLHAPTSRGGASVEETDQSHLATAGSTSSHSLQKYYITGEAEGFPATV

Estrogen receptor beta [2] = target: T2, Estrogen receptor beta (Homo sapiens, UniProt Q92731)
T2 sequence (Q92731 whole entry): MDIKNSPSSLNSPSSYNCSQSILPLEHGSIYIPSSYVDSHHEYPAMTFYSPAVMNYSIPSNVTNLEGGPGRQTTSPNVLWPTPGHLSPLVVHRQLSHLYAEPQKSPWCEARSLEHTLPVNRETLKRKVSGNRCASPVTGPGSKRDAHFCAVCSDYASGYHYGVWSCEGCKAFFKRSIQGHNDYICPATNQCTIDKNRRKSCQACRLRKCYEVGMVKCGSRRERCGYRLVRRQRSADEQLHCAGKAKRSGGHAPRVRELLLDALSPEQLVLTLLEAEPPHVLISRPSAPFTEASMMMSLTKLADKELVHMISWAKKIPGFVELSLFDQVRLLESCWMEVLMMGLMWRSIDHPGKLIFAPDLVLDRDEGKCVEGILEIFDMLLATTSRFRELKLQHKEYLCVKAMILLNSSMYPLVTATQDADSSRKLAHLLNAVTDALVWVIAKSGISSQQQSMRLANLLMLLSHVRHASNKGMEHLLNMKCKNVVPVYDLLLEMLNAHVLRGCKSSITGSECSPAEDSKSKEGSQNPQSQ
Description: Antagonist activity at human estrogen receptor-beta by yeast two-hybrid assay in presence of SRC1

Estrogen receptor beta [3] = target: T2, Estrogen receptor beta; remark: listed apart in the source
Description: Agonist activity at human estrogen receptor-beta by yeast two-hybrid assay in presence of SRC1

Estrogen receptor [4] = target: T1, Estrogen receptor; assay: Agonist activity at human estrogen receptor-alpha by yeast two-hybrid assay in presence of SRC1
Homo sapiens = species on record: Homo sapiens; assay: Selectivity ratio of EC50 for human estrogen receptor-alpha to EC50 for human estrogen receptor-beta
[5] = target: T3, Estrogen receptor (Homo sapiens) (UniProt P03372); assay: Antagonist activity at human estrogen receptor-alpha at 25 uM by yeast two-hybrid assay in presence of SRC1
T3 sequence (whole entry): T1 sequence (P03372 whole entry)

Row | EC50 (Estrogen receptor [1]) | EC50 (Estrogen receptor beta [2]) | Compound | other results
1 | 48.4 µM | 49.2 µM | C=CCc1ccc(OC)c(-c2cc(C=O)cc(O)c2O)c1 | –
2 | 2.55 µM | 4.68 µM | C=C(C)[C@@H]1[C@@H]2O[C@@H]2[C@@H]2[C@]3(CC[C@]4(C)[C@@H]([C@H](C)CC/C=C(\C)C(=O)O)CC[C@@]24C)C[C@]13CCC(=O)O | –
3 | – | – | O=C(Cc1ccc(O)cc1)c1ccc(O)cc1O | EC50 (Estrogen receptor beta [3]): 0.5 µM; EC50 (Estrogen receptor [4]): 2.03 µM
4 | – | – | CCOC(=O)c1ccc(O)cc1 [ETHYLPARABEN] | EC50 (Estrogen receptor beta [3]): 1.86 µM; Ratio EC50 (Homo sapiens): 20; EC50 (Estrogen receptor [4]): 38.2 µM
5 | – | 72.4 µM | C=C(C)[C@@H]1[C@H](O)C[C@@H]2C(=CC[C@]3(C)[C@@H]([C@H](C)CC/C=C(\C)C(=O)OC)CC[C@@]23C)[C@@]1(C)CCC(=O)O | Activity [5]: inactive
6 | – | 25.3 µM | C=C(C)[C@@H]1[C@H](O)C[C@@H]2C(=CC[C@]3(C)[C@@H]([C@H](C)CC/C=C(\C)C(=O)O)CC[C@@]23C)[C@@]1(C)CCC(=O)O | Activity [5]: inactive
7 | 8.17 µM | 4.28 µM | CC(C)(O)c1ccc2c(c1)C(=O)C[C@H]1[C@@](C)(C(=O)O)CCC[C@]21C | –
8 | – | – | O=C(O)/C=C/c1ccc(O)cc1 [COUMARIC ACID] | EC50 (Estrogen receptor beta [3]): 4.89 µM; EC50 (Estrogen receptor [4]): 16.1 µM
9 | – | 33.8 µM | C=C(C)[C@@H]1[C@H](O)C[C@@H]2[C@]3(CC[C@]4(C)[C@@H]([C@H](C)CC/C=C(\C)C(=O)O)CC[C@@]24C)C[C@]13CCC(=O)O | Activity [5]: inactive
10 | 8.32 µM | 2.76 µM | C/C(=C/C(=O)C[C@@H](C)[C@]1(C)CC[C@@]2(C)C3=CCC4C(C)(C)C(=O)CC[C@]4(C)[C@@H]3CCC21)C(=O)O (stereo partly drawn) | –

Row | Compound | EC50 (Estrogen receptor [1]) | EC50 (Estrogen receptor beta [2]) | other results
11 | C/C(=C/C(=O)C[C@@H](C)[C@]1(C)CC[C@@]2(C)C3=CCC4C(C)(C)[C@H](O)CC[C@]4(C)[C@@H]3CC=C21)C(=O)O (stereo partly drawn) | 12.6 µM | 17.7 µM | –
